Entries after “also recorded” stand apart in the source; their conditions may differ. No end group written: not given here.
Key:
deltaF508-CFTR [1] = test: CFTR agonist evoked short circuit (ISC) current, Ussing epithelial voltage clamp; format: cell-based, human; conditions: for summed ISC currents compared with Vehicle treatment: apical, one day at 27° C., CFFT006F cells, Dunnett's test
Description: To test for bioeffectiveness, for our exemplary invention to stabilize CFTR, we measured the chloride transport function homozygous deltaF508-CFTR cystic fibrosis human bronchial epithelial cells grown and differentiated on Snapwell™ filter inserts as CFTR agonist evoked short circuit (ISC) current. The ISC was the output of an Ussing epithelial voltage clamp apparatus after amiloride block of sodium current through the epithelial sodium channel (ENaC). ENaC current was monitored as the amiloride sensitive current component of the ISC. The objective of this study was to measure the ability of various compounds, including but limited to CT002, CT008, CT003, CT004, CT005, CT006, CT007, and AT0011 (peptide control), to restore function to defective deltaF508-CFTR in CFhBE cell monolayers (epithelia) after a one day incubation period on the apical surface of the epithelia. See FIG. 4 for sequences and ID numbers.
(§1) CT003, CT004, CT005, CT006, CT007, and AT0011 were combined with the known corrector VX-809. CT002 (WQVTRV) was incubated with 10 μL of the cell permeability enhancing reagent BioPORTER™. Statistical comparisons were made using Dunnett's test and Student's t-test with significance evaluated at P<0.05. The ISC current polarity convention used here records apical to basolateral sodium current and basolateral to apical chloride current as negative.
Referring now to the drawings, a first exemplary embodiment is illustrated and generally indicated in FIGS. 1, 2 and 3, which is the measurement of the chloride transport function of homozygous deltaF508-CFTR cystic fibrosis human bronchial epithelial cells grown and differentiated on Snapwell™ filter inserts as CFTR agonist evoked short circuit (ISC) current. The ISC was the output of an Ussing epithelial voltage clamp apparatus after amiloride block of sodium current through the epithelial sodium channel (ENaC). ENaC current was monitored as the amiloride sensitive current component of the ISC. The objective of this study was to measure the ability of candidate Test Articles and controls (CT002 (WQVTRV+BIOPORTER), CT008 (WQVTRV alone), CT003, CT004, CT005, CT006, CT007, and AT0011 control) to restore function to defective deltaF508-CFTR in CFhBE cell monolayers (epithelia) after a one day incubation period on the apical surface of the epithelia. These peptide compounds differed in their amino acid sequence to optimize solubility, intracellular permeability, stability and toxicity (CT003-CT007 shown here). The control peptides were non-optimized sequences (CT002 and CT008) and an off-target peptide control (AT0011).
as §1, with “VX-809 and” for “VX-809.”, “CT002” for “CT002 (WQVTRV)”, “used” for “used here”
All incubations were performed at 27±0.5° C. Test Articles were applied at their final concentrations to the apical surface of the cellular monolayers in 200 μL of Opti-MEM Reduced Serum Medium without addition of serum. […] Test Article incubations were approximately 24 hours. 150 μL of cycloheximide (20 μg/mL) was applied to the apical surface of the epithelia for the final 2 hours of peptide treatment, total volume 350 μL. Cycloheximide prevented new protein synthesis that might be otherwise conflated with test article efficacy. This incubation protocol mimics the dilution and clearance effect that will be encountered by topical delivery to the lungs. Test articles are applied at t=0 h, 10 μM in 200 μL, to the apical surface. 2000 μL of basolateral medium provides an immediate dilution effect (test article: 0.91 μM), then at t=22 h, a further […] of cycloheximide containing solution is further added, (test article: 0.85 μM). […]

[2] = Solubility of peptide sequences; format: physicochemical
[3] = tested on: epithelial sodium channel (ENaC); test: Amiloride sensitive sodium current component of the ISC, Ussing assay; format: cell-based, human; conditions: Test Article 10 uM + VX-809 1 uM, Student's test
Description: To test for bioeffectiveness, for our exemplary invention to stabilize CFTR, we measured the chloride transport function homozygous deltaF508-CFTR cystic fibrosis human bronchial epithelial cells grown and differentiated on Snapwell™ filter inserts as CFTR agonist evoked short circuit (ISC) current. The ISC was the output of an Ussing epithelial voltage clamp apparatus after amiloride block of sodium current through the epithelial sodium channel (ENaC). ENaC current was monitored as the amiloride sensitive current component of the ISC. […]
Referring now to the drawings, a first exemplary embodiment is illustrated and generally indicated in FIGS. 1, 2 and 3, which is the measurement of the chloride transport function of homozygous deltaF508-CFTR cystic fibrosis human bronchial epithelial cells grown and differentiated on Snapwell™ filter inserts as CFTR agonist evoked short circuit (ISC) current. […] ENaC current was monitored as the amiloride sensitive current component of the ISC. […]
Ussing Assay: All Ussing assays were performed at 27±0.5° C. and lasted for approximately 1 hour 40 minutes. The temperature was monitored throughout the experiment using a thermistor probe connected to the data acquisition system and inserted into the bath solution of one chamber. […]

deltaF508-CFTR [4] = conditions: cited from earlier work
[5] = Test Article 10 uM + VX-809 1 uM, Student's t-test

Cc1ccc(NC(=O)C2(c3ccc4c(c3)OC(F)(F)O4)CC2)nc1-c1cccc(C(=O)O)c1 [VX-809, reference compound]
summed ISC currents compared with Vehicle treatment (deltaF508-CFTR [1]; VX-809 1 μM alone): significantly above Vehicle treatment | summed ISC currents compared with expected level (deltaF508-CFTR [1]; VX-809 1 μM, apical incubation only, not in basolateral media): less than the expected level

WQVTRV [CT008, WQVTRV]
solubility at the effective concentration ([2]; 500 μM): largely insoluble | solubility in water ([2]; water / aqueous fluids): insoluble in water

Acety-YGRKKRRQRRR-glycoyl-WQVTRV-amide (Ac-YGRKKRRQRRR; not fully specified (C-terminus)) [CT007]
amiloride sensitive sodium current generated by ENaC compared to VX-809 alone [3]: significantly increased | lower concentration needed versus prior sequences with BIOPORTER (deltaF508-CFTR [1]; 10 μM CT007 vs 500 μM WQVTRV): > 50 times | improvement in reported efficacy versus WQVTRV and ANSRWPTSII with BIOPORTER (deltaF508-CFTR [1]; 10 uM vs 500 μM, at least): fifty-fold | additive efficacy to VX-809 (deltaF508-CFTR [1]; CT007 10 uM + VX-809 1 uM, CF bronchial epithelium, n=4): 36% | response to CFTRinh-172 compared with VX-809 1 uM (deltaF508-CFTR [1]; [5]): significantly increased | summed ISC currents (CFTR chloride current restoration) compared with VX-809 1 μM treatment (deltaF508-CFTR [1]; [5]): significantly greater; also recorded: significantly above VX-809 1 μM treatment | summed ISC currents compared with Vehicle treatment (deltaF508-CFTR [1]; Test Article 10 uM + VX-809 1 uM): significantly above Vehicle treatment | duration of therapeutic drug action (deltaF508-CFTR [1]; after transient topical apical dosing, test article removed before Ussing assay): at least 26 hours

ANSRWPTSII
function without BIOPORTER (deltaF508-CFTR [4]): neither sequence functions

Source: US20140296164A1, “Compositions and methods of use for cell targeted inhibitors of the Cystic Fibrosis transmembrane regulator associated ligand” (CALISTA THERAPEUTICS, INC., priority 2013, published 2014)
